The target of one assay is T1, ETA receptors (Rattus norvegicus, UniProt P26684).
T1 sequence (P26684 21-426): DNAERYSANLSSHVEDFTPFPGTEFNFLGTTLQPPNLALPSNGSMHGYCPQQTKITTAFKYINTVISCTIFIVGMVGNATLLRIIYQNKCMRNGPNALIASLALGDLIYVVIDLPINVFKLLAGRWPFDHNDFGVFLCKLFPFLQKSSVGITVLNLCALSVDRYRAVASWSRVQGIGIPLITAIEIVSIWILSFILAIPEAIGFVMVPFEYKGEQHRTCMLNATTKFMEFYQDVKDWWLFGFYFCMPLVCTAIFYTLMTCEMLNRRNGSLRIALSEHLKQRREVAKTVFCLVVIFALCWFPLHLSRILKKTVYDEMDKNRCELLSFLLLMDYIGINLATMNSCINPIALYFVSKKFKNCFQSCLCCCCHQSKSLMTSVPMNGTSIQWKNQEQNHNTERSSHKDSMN
Put plainly: Inhibition of endothelin-1-induced contractions on isolated rat aortic rings. The following applies: for pA2 value ETA: rat aortic rings, contraction induced by endothelin-1, 10 min incubation.

The target of assay [1] is T2, human recombinant ETB receptors (Homo sapiens, UniProt P24530).
T2 construct: expressed in transfected cells; host or cells: CHO cells (microsomal membranes)
T2 sequence (P24530 27-442): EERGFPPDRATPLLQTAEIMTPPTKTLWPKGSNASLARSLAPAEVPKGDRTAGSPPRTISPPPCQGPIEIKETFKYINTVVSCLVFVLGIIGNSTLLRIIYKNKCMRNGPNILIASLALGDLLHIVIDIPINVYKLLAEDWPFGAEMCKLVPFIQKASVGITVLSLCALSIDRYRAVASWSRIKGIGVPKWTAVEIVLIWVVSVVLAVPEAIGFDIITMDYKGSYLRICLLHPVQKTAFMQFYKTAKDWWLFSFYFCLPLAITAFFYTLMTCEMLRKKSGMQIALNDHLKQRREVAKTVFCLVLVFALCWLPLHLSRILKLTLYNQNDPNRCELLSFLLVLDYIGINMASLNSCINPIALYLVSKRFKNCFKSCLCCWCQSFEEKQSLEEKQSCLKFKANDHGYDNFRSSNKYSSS
Briefly: Inhibition of endothelin binding to membranes from CHO cells carrying human ET receptors (ETB). As to the method: 1) Inhibition of Endothelin Binding to Membranes from CHO Cells Carrying Human ET Receptors:
For competition binding studies, membranes of CHO cells expressing human recombinant ETA or ETB receptors were used. Microsomal membranes from recombinant CHO cells were prepared and the binding assay made as previously described (Breu V., et al, FEBS Lett 1993; 334:210).
The assay was performed in 200 uL 50 mM Tris/HCl buffer, pH 7.4, including 25 mM MnCl2, 1 mM EDTA and 0.5% (w/v) BSA in polypropylene microtiter plates. […]. […] After two h, the membranes were filtered on, filterplates containing GF/C filters (Unifilterplates from Canberra Packard S. A. Zürich, Switzerland). To each well, 50 uL of scintillation cocktail was added (MicroScint 20, Canberra Packard S. A. Zürich, Switzerland) and the filter plates counted in a microplate counter (TopCount, Canberra Packard S. A. Zürich, Switzerland).
All the test compounds were dissolved, diluted and added in DMSO. […] […].

A further assay addresses T3, ETB receptors (Rattus norvegicus, UniProt P21451).
T3 sequence (P21451 27-442): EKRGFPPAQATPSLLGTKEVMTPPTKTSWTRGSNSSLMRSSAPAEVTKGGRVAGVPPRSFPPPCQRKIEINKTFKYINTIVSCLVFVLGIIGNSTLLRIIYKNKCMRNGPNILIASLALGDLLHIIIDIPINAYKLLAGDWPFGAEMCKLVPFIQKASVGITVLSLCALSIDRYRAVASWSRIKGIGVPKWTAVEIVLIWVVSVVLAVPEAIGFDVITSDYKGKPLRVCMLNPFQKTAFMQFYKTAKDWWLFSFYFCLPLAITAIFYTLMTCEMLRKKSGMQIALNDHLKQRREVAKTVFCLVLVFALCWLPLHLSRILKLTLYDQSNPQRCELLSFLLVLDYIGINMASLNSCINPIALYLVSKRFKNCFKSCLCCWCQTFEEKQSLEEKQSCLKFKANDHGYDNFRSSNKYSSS
Briefly: Inhibition of sarafotoxin S6c-induced contractions on isolated rat tracheal rings. The following applies: for pA2 value ETB: rat tracheal rings, contraction induced by sarafotoxin S6c, 10 min incubation.

The target of assay [2] is T4, human recombinant ETA receptors (Homo sapiens, UniProt P25101).
T4 construct: expressed in transfected cells; host or cells: CHO cells (microsomal membranes)
T4 sequence (P25101 21-427): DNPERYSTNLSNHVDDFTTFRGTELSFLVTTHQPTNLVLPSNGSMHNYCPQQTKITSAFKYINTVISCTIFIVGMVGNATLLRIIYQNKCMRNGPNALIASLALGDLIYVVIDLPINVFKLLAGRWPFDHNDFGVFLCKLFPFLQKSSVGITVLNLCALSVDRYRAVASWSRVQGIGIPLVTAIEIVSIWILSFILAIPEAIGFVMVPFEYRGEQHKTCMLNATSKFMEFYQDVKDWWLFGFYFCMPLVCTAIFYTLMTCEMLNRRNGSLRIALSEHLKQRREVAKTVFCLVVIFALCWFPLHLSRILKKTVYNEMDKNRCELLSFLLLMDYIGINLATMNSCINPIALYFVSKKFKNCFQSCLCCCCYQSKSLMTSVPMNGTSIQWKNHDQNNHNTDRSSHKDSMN
Put plainly: Inhibition of endothelin binding to membranes from CHO cells carrying human ET receptors (ETA).

[3] abbreviates: membranes of CHO cells expressing human recombinant ETA receptors, 8 pM [125I]ET-1, 2 h at 20° C.
Setting [4] is: membranes of CHO cells expressing human recombinant ETB receptors, 8 pM [125I]ET-1, 2 h at 20° C.

Where two headings read alike, the source gives them in different places.

A word on the IC50: it is the point on the concentration scale where inhibition reaches its midpoint. Take `COc1ccccc1Oc1c(NS(=O)(=O)c2ccc(C(C)(C)C)cc2)nc(-c2ncccn2)nc1OCCNS(=O)(=O)c1cccs1` [Example 7, p-tert.-butyl-N-[6-(ethoxy-2-(2-thiophenesulfonamido))-5-(o-methoxyphenoxy)-2-(2-pyrimidinyl)-4-pyrimidinyl]benzene-sulfonamide]: the “pA2 value ETA” value on ETA receptors was found to be 6.08. Besides, the results for the IC50 in assay [1] and in assay [2] (setting [3]) were 15.8 nM and 63.6 nM, respectively. In addition, the “pA2 value ETB” value at ETB receptors was 7.15.
Consider `COc1ccccc1Oc1c(NS(=O)(=O)c2ccc(C(C)C)cn2)nc(-c2ccncc2)nc1OCCNS(=O)(=O)C(C)C` [Example 10, 5-i.-propyl-N-[6-(ethoxy-2-(2-propanesulfonamido))-5-(o-methoxyphenoxy)-2-(4-pyridyl)-4-pyrimidinyl]pyridine-2-sulfonamide], for which the Kb on ETA receptors was 186 nM; at ETB receptors, 1260 nM. For the same compound, the figures for the IC50 in assay [1] and in assay [2] were 193 nM and 67.2 nM, respectively.
Turning to `COc1ccccc1Oc1c(NS(=O)(=O)c2ccc(C(C)C)cn2)nc(-c2cc(OC)c(OC)c(OC)c2)nc1OCCNS(=O)(=O)c1ccc(C)cc1` [Example 11, 5-i.-propyl-N-[6-(ethoxy-2-(4-methylbenzenesulfonamido))-5-(o-methoxyphenoxy)-2-(3,4,5-trimethoxyphenyl)-4-pyrimidinyl]pyridine-2-sulfonamide], the IC50 in assay [1] came out at 4.3 nM; in assay [2] (setting [3]), 5110 nM. Besides, the “pA2 value ETB” value on ETB receptors is 7.46.
Consider `COc1ccccc1Oc1c(NS(=O)(=O)c2ccc(C(C)C)cn2)nc(-c2ccncc2)nc1OCCNS(=O)(=O)c1ccc(C)cc1` [Example 12], for which the Kb on ETA receptors is 851 nM; on ETB receptors, 513 nM. Moreover, the IC50 in assay [1] is 73.3 nM; in assay [2], 2120 nM.
Regarding `COc1ccccc1Oc1c(NS(=O)(=O)c2ccc(C(C)C)cn2)nc(-c2cc(OC)c(OC)c(OC)c2)nc1OCCNS(=O)(=O)c1cccs1` [Example 15, 5-i.-propyl-N-[6-(ethoxy-2-thiophenesulfonamido)-5-(o-methoxyphenoxy)-2-(3,4,5-trimethoxyphenyl)-4-pyrimidinyl]pyridine-2-sulfonamide], the IC50 amounted to 7.3 nM in assay [1] and 1320 nM in assay [2] (setting [3]). At ETB receptors, this compound had a Kb of 40.7 nM.
With `CCCS(=O)(=O)NCCOc1nc(-c2cc(OC)c(OC)c(OC)c2)nc(NS(=O)(=O)c2ccc(C(C)C)cn2)c1Oc1ccccc1OC` [Example 16, 5-i.-propyl-N-[6-(ethoxy-2-(1-propanesulfonamido))-5-(o-methoxyphenoxy)-2-(3,4,5-trimethoxyphenyl)-4-pyrimidinyl]pyridine-2-sulfonamide], the Kb on ETA receptors is above 3160 nM; at ETB receptors, 34.7 nM. For the same compound, the IC50 was 24.5 nM in assay [1] and 261 nM in assay [2] (setting [3]).
Regarding `CCS(=O)(=O)NCCOc1nc(C(F)(F)F)nc(NS(=O)(=O)c2ccc(C(C)C)cn2)c1Oc1ccccc1OC` [Example 55, 5-i.-propyl-N-[6-(2-(ethanesulfonylamino)-ethoxy)-5-(o-methoxyphenoxy)-2-trifluoromethyl-4-pyrimidinyl]pyridine-2-sulfonamide], the “pA2 value ETA” value on ETA receptors is listed as 6.2. The “pA2 value ETB” value on ETB receptors is 6.3.
Turning to `CCCS(=O)(=O)NCCOc1nc(N2CCOCC2)nc(NS(=O)(=O)c2ccc(C)cn2)c1Oc1ccccc1OC` [Example 59, 5-methyl-N-[6-(2-(1-propanesulfonylamino)-ethoxy)-5-(o-methoxyphenoxy)-2-(N-morpholino)-4-pyrimidinyl]-2-pyridine sulfonamide], the “pA2 value ETA” value at ETA receptors is given as 6.61. Further, the values for the IC50 in assay [1] and in assay [2] were 189 nM and 103 nM, respectively. The “pA2 value ETB” value on ETB receptors came to 5.58.
As for `COc1ccccc1Oc1c(NS(=O)(=O)c2ccc(C(C)C)cn2)nc(N2CCOCC2)nc1OCCNS(=O)(=O)c1ccc(C)cc1` [Example 60, 5-isopropyl-N-[6-(2-(4-methylbenzenesulfonylamino)-ethoxy)-5-(o-methoxyphenoxy)-2-(N-morpholino)-4-pyrimidinyl]-2-pyridine sulfonamide], the IC50 in assay [1] came to 16 nM; in assay [2], 1440 nM. In addition, the “pA2 value ETB” value on ETB receptors worked out at 7.3.
For the compound `CCS(=O)(=O)NCCOc1nc(-c2ncccn2)nc(NS(=O)(=O)c2ccc(C(C)C)cn2)c1Oc1ccccc1OC` [Example 70, 5-isopropyl-N-[6-(2-(ethanesulfonylamino)-ethoxy)-5-(o-methoxyphenoxy)-2-(2-pyrimidinyl)-4-pyrimidinyl]-2-pyridine sulfonamide], on ETA receptors, the Kb is 891 nM. Moreover, the IC50 in assay [1] turned out to be 2070 nM; in assay [2] it was 282 nM.
Turning to `CCS(=O)(=O)NCCCOc1nc(C2CC2)nc(NS(=O)(=O)c2ccc(C(C)(C)C)cc2)c1Oc1ccccc1OC` [Example 87], the “pA2 value ETA” value at ETA receptors is listed as 6.52. For the same compound, the figures for the IC50 in assay [1] (setting [4]) and in assay [2] (setting [3]) were 33.1 nM and 48.1 nM, respectively.
Take `COc1ccccc1Oc1c(NS(=O)(=O)c2ccc(C(C)(C)C)cc2)nc(C2CC2)nc1OCCCNS(=O)(=O)c1cccs1` [Example 88, 4-tert.-butyl-N-[6-(3-(2-thiophenesulfonylamino)-propoxy)-5-(o-methoxyphenoxy)-2-cyclopropyl-4-pyrimidinyl]-benzene-sulfonamide]: the “pA2 value ETA” value at ETA receptors was 6.16. Also, the “pA2 value ETB” value at ETB receptors is given as 7.95.
On to `COc1ccccc1Oc1c(NS(=O)(=O)c2ccc(C(C)C)cn2)nc(C2CC2)nc1OCCCNS(=O)(=O)c1cccs1` [Example 93, 5-i.-propyl-N-[6-(3-(2-thiophenesulfonylamino)-propoxy)-5-(o-methoxyphenoxy)-2-cyclopropyl-4-pyrimidinyl]-pyridine-2-sulfonamide], for which the figures for the IC50 in assay [1] and in assay [2] (setting [3]) were 3.86 nM and 22.2 nM, respectively.
`COc1ccccc1Oc1c(NS(=O)(=O)c2ccc(C(C)C)cn2)nc(C2CC2)nc1OCCCNS(=O)(=O)c1ccc(C)cc1` [Example 94, 5-i.-propyl-N-[6-(3-(p-toluenesulfonylamino)-propoxy)-5-(o-methoxyphenoxy)-2-cyclopropyl-4-pyrimidinyl]-pyridine-2-sulfonamide]: the results for the IC50 in assay [1] and in assay [2] (setting [3]) were 18.6 nM and 77.3 nM, respectively.
“p-methyl-N-[6-(ethoxy-2-benzenesulfonamido)-5-(o-methoxyphenoxy)-2-(4-pyridyl)-4-pyrimidinyl]benzene-sulfonamide [Example 2]”: the figures for the IC50 in assay [1] (setting [4]) and in assay [2] (setting [3]) were 1790 nM and 1960 nM, respectively.

(Values after patent US6596719B1 (Actelio Pharmaceuticals Ltd., priority 1999, dated 2003).)
